Assay [1] has as its system AMPK phosphorylation in human neural stem cells. Kind of assay: AMPK phosphorylation level by western blot. The assay is classed as cell-based. The settings on record: Aβ 5 μM pre-treatment 30 minutes, PL201 30 PM, 72 hours. The method, then: The changes of mitochondrial function are closely related to the regulation of metabolism signaling including AMPK, which is also widely considered to be closely related to the pathogenesis of AD. In this example, the inventors have explored whether PL201 has an effect on metabolism signaling by detecting the level of AMPK phosphorylation in human neural stem cells via western blot.
Human neural stem cells (3 L) were cultured in DMEM/F12 (containing N2/B27 and 10 ng/ml bFGF), plated to 12 well plates and cultured for 24 hours, then Aβ (5 μM) was added to pre-treat the cells for 30 minutes, and then PL201 ([…]) was added. After co-incubation for 72 hours, the cells were washed with PBS and lysed with Laemmli's sample buffer, then SDS PAGE electrophoresis was performed to detect associated protein bands with rabbit anti-phospo-AMPK and total AMPK antibody.

For another assay, the system named is MPTP mice model. The assay is described as follows: Pole-climbing test in MPTP model. Format: in vivo, mouse. The settings on record: PL201+MPTP vs NS+MPTP group, 50 mg intragastrically once a day, day 3 of the experiment. The protocol:
The mice were randomly divided into 4 groups: a group in which the mice was administrated with normal saline (NS), a MPTP model group in which the mice was intragastrical administrated with normal saline ([…]), a group in which the mice was intragastrical administrated with 50 mg of compound PL201 (PL201), and a MPTP model group in which the mice was intragastrical administrated with compound PL201 (PL201+MPTP).
11 animals were set in the group in which the mice was administrated with normal saline (NS), 14 animals were set in the MPTP model group in which the mice was intragastrical administrated with normal saline (NS+MPTP), 4 animals were set in the group in which the mice was intragastrically administrated with 50 mg of compound PL201 (PL201), 15 animals were set in the MPTP model group in which the mice was intragastrically administrated with the compound PL201 (PL201+MPTP). […]
On Day 3 of the experiment, the pole-climbing test of mice was carried out to evaluate the motor coordination ability of the mice. […] The time taken by the mice to turn from head upwards to head downwards completely was recorded as the time to turn around, and the time taken by the mice from moving downwards to all limbs reaching the bottom of the pole was recorded as the time to climb down. Time exceeded 30 seconds was recorded as 30 seconds. […]

For `COc1cc(/C=C/C(=O)OC2OC(C)C(O)C(O)C2O)ccc1O` [PL201, (α-L-rhamnopyranosyl) ferulic acid ester], in assay [1], the AMPK phosphorylation level entry is reported as “reduced the extent of this decline”. In the assay with MPTP mice model, the “time to climb down” value is given as “reduced” and the “time to turn around” value was “reduced”.

The values are drawn from patent publication US11643428B2, “Therapeutic drug for neurodegenerative disease and application thereof” (SHANGHAI PHARMACEUTICALS HOLDING CO., LTD., priority 2018, dated 2023).
